Test results published in patent publication US9441263B2, “Ribosomal targets for antibiotic drug discovery” (Cornell University, priority 2011, dated 2016).
“Also recorded” adds a separate entry of the source. Starred links: 1 amine or outer side, 2 acyl side, 3 side chain; linkers in the order of their positions; H or OH if unused. Positions of bridges follow the written chain, without caps; N, C: chain ends. Non-standard residues stand in square brackets, D forms with d. Residues, ends and D or L forms follow the SMILES beside them. *: point of attachment. X1 = NC1=N[C@@H]([C@H](N[*:1])C(=O)[*:2])C[C@H](O)N1; ΔAla(Z-3-ureido) = NC(=O)N/C=C(\N)C(=O)O; β3hOrn = NCCC[C@H](N)CC(=O)*; Dap = NC[C@H](N)C(=O)O

Tests used:
[1] = tested on: Cy3-S13 / Cy5-L1 (T202C) ribosome complexes; assay: Single-molecule L1-S13 FRET assay (ribosome conformational states); format: biochemical, E. coli
Experimental: Generation of Site-Specifically Labeled 30S Subunits and 50S Subunits.
Ribosomal protein S13 was PCR-cloned from E. coli strain K12 genomic DNA into the pPROEX HTb vector with a TEV-cleavable His6-tag and a 12-residue peptide encoding the S6 epitope for the Sfp phosphopantetheinyl transferase reaction (Yin 2006), fused at the N terminus. Following transformation of this plasmid into an E. coli ΔS13 knockout strain (Cukras 2005), cells were cultured and ribosomes were harvested as previously described (Wang 2011). Pure 30S subunits were isolated via sucrose gradient centrifugation in a low magnesium buffer (20 mM HEPES pH 7.5, 50 mM KCl, 10 mM NH4Cl, 0.5 mM EDTA, 6 mM BME, 1 mM MgCl2). 30S subunits containing Sfp-tagged S13 were isolated from this population by cobalt affinity chromatography (Clontech). Subsequently, the Sfp tag was enzymatically labeled and the His6-tag was enzymatically removed in a buffer containing 20 mM HEPES, pH 7.5, 100 mM KCl, 10 mM MgCl, and 6 mM BME. 20 μM N-Sfp-S13 30S subunits, 5 μM TEV protease, 250 μM Cy3-CoA and 25 μM Sfp were incubated for 24 h at 18° C. Sfp enzyme, TEV protease and unbound Cy3-CoA were then removed by filtration over a 100K membrane (Millipore). Prior to 70S complex formation, ribosomes were buffer exchanged into Tris-polymix buffer (Munro 2010c). 50S subunits labeled with Cy5-L1 (T202C) were prepared and purified as previously described (Munro 2010b).
Preparation of L1-S13 FRET Ribosome Complexes with tRNA^fMet or tRNA^Phe in the P Site.
Cy3-S13 30S and Cy5-L1 50S subunits were heat activated at 42° C. for 10 min in Tris-polymix Mg^2+ buffer and ribosomes were then initiated with fMet-tRNA^fMet or NAc-Phe-tRNA^Phe as previously described (Munro 2010c).
Single-Molecule L1-S13 FRET Assay.
All single-molecule FRET experiments were performed at room temperature in Tris-Polymix with 5 mM Mg^2+ buffer as previously described (Wang 2011), where oxygen scavenging and triplet-state quenching systems were employed (Dave 2009). Following surface immobilization (Munro 2007), the ribosome-bound, P-site tRNA was deacylated by incubation with 2 mM puromycin for 10 min at room temperature. The smFRET data were acquired by directly exciting the Cy3 fluorophore at 532 nm (LaserQuantum) while Cy3 and Cy5 intensities were simultaneously recorded in Metamorph (Molecular Devices) with 40 ms integration time. The data were analyzed in MATLAB (MathWorks) and plotted in Origin (OriginLab) as previously described (Munro 2007).

[2] = tested on: wild-type pre-translocation ribosome complexes; settings: Feldman 2010; cited from earlier work
[3] = tested on: A1408G mutant pre-translocation ribosome complexes; assay: Single-molecule translocation assay (EF-G catalyzed), A1408G ribosome complexes; format: biochemical, E. coli
Description: (§1) Purification of A1408G Ribosomes.
(§2) Wild-type ribosomes and ribosomes bearing A1408G mutation were purified from a Δ7prrn E. coli MG1655 strain (RecA-) for single-molecule translocation and recycling experiments. The A1408G neomycin resistance mutation was introduced into a […] (KanR, SpecR) plasmid containing an rrnB operon (Komoda 2006) using Quickchange II site-directed mutagenesis (Stratagene). Wild-type and A1408G containing pRB102 plasmids (Komoda 2006) were then swapped into a Δ7prrn E. coli MG1655 (pKK3535, AmpR; ptRNA67, SpecR) strain. Tightly-coupled 70S ribosomes were purified from these strains in Tris-polymix buffer as previously described (Munro 2007).
(§3) Single-Molecule Translocation Assay.
(§4) Fluorescence-based, single-molecule translocation assays were carried out as previously described (Munro 2010c) on either wild-type or A1408G mutant pre-translocation ribosome complexes. Experiments were performed in Tris-polymix buffer (pH 7.5, 5 mM Mg(OAc)2) and analyzed as previously described (Munro 2010c; Wang 2011), plotting the fraction of translocating molecules as a function of time.

A1408G mutant ribosomes [4] = assay: Single-molecule FRET tRNA incorporation (aa-tRNA selection) assay, A1408G mutant ribosomes; format: biochemical, E. coli
Description: as §1, §2
(§5) Single-Molecule FRET tRNA Incorporation Assay.
The process of tRNA selection on the ribosome was monitored using single-molecule FRET by stropped-flow injection of a 10 nM solution of ternary complex (EF-Tu(GTP)·aa-tRNA) containing Phe-tRNA^Phe (Cy5-acp^3U47) to surface-immobilized ribosome complexes containing deacylated tRNA^fMet (Cy3-s^4U8) in the P site as previously described (Geggier 2010). Fluorescence and FRET traces were extracted from video and selected for analysis using automated analysis software implemented in MATLAB (MathWorks) using the segmental k-means algorithm (Qin, 1996). […]

wild-type ribosomes = assay: Single-molecule FRET tRNA incorporation (aa-tRNA selection) assay, wild-type ribosomes; format: biochemical, E. coli
Experimental: as §5
The process of tRNA selection on the ribosome was monitored using single-molecule FRET by stropped-flow injection of a 10 nM solution of ternary complex (EF-Tu(GTP)·aa-tRNA) containing Phe-tRNA^Phe (Cy5-acp^3U47) to surface-immobilized ribosome complexes containing deacylated tRNA^fMet (Cy3-s^4U8) in the P site as previously described (Geggier 2010). Fluorescence and FRET traces were extracted from video and selected for analysis using automated analysis software implemented in MATLAB (MathWorks) using the segmental k-means algorithm (Qin, 1996). Complete accommodation of Phe-tRNA^Phe into the A site was marked by the first observation of a 400 ms dwell in a high ([…]) FRET state, structurally assigned to the “classical” pre-translocation complex configuration through previous investigations (Geggier 2010). Individual experiments, in which approximately 100 accommodation events were obtained, were performed in triplicate. The mean extent of accommodation and standard deviations are plotted as a function of time. Wild type and mutant ribosomes for these experiments were purified as previously described (Feldman 2010).

A1408G mutant ribosomes [5] = assay: Single-molecule ribosome recycling assay (loss of Cy5-labeled L1 fluorescence), A1408G; format: biochemical, E. coli; settings: neomycin 0.1-100 μM
Description: (§6) As described in the examples, this invention provides single-molecule assays for ribosome recycling which comprises surface-immobilizing a ribosome labeled on the 50S subunit in the presence of tRNA, RRF and EF-G under translation conditions; and monitoring changes in the signal from the label, wherein a change in the signal indicates recycling or lack thereof. For example, this assay can be conducted in solution or using smFRET like imaging techniques (following fluorescence decay), with the label on the ribosome being a fluorophore.
Purification of A1408G Ribosomes. […]
(§7) Single-Molecule Fluorescence Experiments.
(§8) All single-molecule fluorescence experiments were performed at room temperature in an MES-Polymix buffer that resembled the crystallization condition (50 mM MES, pH 6.5, 5.0 mM MgCl2, 350 mM NH4Cl, 5.0 mM putrescine, 5.0 mM spermidine, 5 mM (3-mercaptoethanol and 0.5 mM EDTA). Oxygen scavenging and triplet-state quenching systems used were as previously described (Dave 2009). The smFRET data were acquired with Metamorph (Molecular Device), and analyzed in MATLAB (Mathwork) and QuB (www.qub.buffalo.edu) as previously described (Munro 2010a,b). Subunit release was monitored by directly exciting the Cy5 fluorophore within surface-immobilized ribosome complexes (Coherent) at 10 mW laser power. […] Changes in fluorescence intensity were analyzed and plotted in Origin (OriginLab).

[6] = tested on: wild-type 70S ribosome complexes; assay: Single-molecule ribosome recycling assay (loss of Cy5-labeled L1 fluorescence), wild-type; format: biochemical, E. coli; settings: wild-type ribosomes; neomycin 0.1-100 μM
Description: as §6, §7, §8

[7] = tested on: wild-type pre-translocation ribosome complexes; assay: Single-molecule translocation assay (EF-G catalyzed), wild-type ribosome complexes; format: biochemical, E. coli; settings: wild-type ribosomes
Experimental: as §3, §4

[8] = deacylated tRNA^fMet in the P site, no A-site tRNA, EF-G with GDPNP

## NCCC[C@H](N)CC(=O)N[C@H]1CNC(=O)[C@H]([C@H]2C[C@H](O)NC(N)=N2)NC(=O)/C(=C/NC(N)=O)NC(=O)[C@H](CO)NC(=O)[C@H](CO)NC1=O [viomycin] (β3hOrn-[Dap]SS[ΔAla(Z-3-ureido)][X1]; lactam 1-C)
[1]; [8]
  FRET state stabilized (L1-S13): high-FRET state was also favored; also recorded: rotated state

## EF-G: GTPase elongation factor-G
[1]; [8]
  FRET state stabilized (L1-S13): high-FRET state was stabilized; also recorded: high-FRET, rotated state

## RRF: ribosome recycling factor, purified from E. coli, C-terminal hexa-histidine tagged
[1]; [8]
  FRET state stabilized (L1-S13): high-FRET state was stabilized; also recorded: high-FRET rotated state

## neomycin
[2]
  neomycin concentration inhibiting translocation as potently as viomycin: higher than 100 nM
[3]; A1408G mutant background, neomycin 0.01-100 μM, normalized to no drug
  EF-G catalyzed translocation: inhibits EF-G catalyzed translocation in a concentration dependent manner
[3]; A1408G ribosomes
  concentration at which substrate translocation is blocked: above 1 μM
A1408G mutant ribosomes [4]; 100 nM neomycin
  miscoding effects / incorporation of near-cognate tRNA: reduced; also recorded: almost entirely suppressed
A1408G mutant ribosomes [4]; 20 μM neomycin
  selection (incorporation) of cognate and near-cognate tRNA: both reduced; also recorded: Inhibition persisted
[1]; figure title, tRNA^fMet or tRNA^Phe in the P site
  ribosome conformation stabilized (L1-S13 FRET): stabilizes an intermediate conformation of the ribosome
[1]; higher neomycin concentrations (>1 μM), deacylated tRNA^fMet in the P site
  FRET state stabilized (L1-S13): stabilized a ribosome configuration exhibiting an intermediate FRET value
[1]; low neomycin concentrations (<100 nM), deacylated tRNA^fMet in the P site
  FRET state favored (L1-S13): low-FRET state was favored
wild-type ribosomes; 100 nM neomycin, cognate (UUC) codon
  selection of cognate tRNA: negligible effects
wild-type ribosomes; 100 nM neomycin, near-cognate (UCU) codon
  rates of near-cognate aa-tRNA accommodation: substantially increased
wild-type ribosomes; 20 μM neomycin
  selection of both cognate and near-cognate tRNA: significantly attenuated
A1408G mutant ribosomes [5]
  ribosome recycling catalyzed by RRF, EF-G and GTP: inhibits the process of ribosome recycling catalyzed by RRF, EF-G and GTP in a concentration-dependent manner; also recorded: inhibited ribosome recycling
[6]
  ribosome recycling mediated by RRF and EF-G: inhibited ribosome recycling
[7]
  concentration at which substrate translocation is blocked: above 1 μM
